Entries after “also recorded” stand apart in the source; their conditions may differ. Read-outs that look alike come from different tables or passages of the source.
Key:
[1] = system: Dahl/ss rats with salt induced renal injury; assay: Efficacy test in salt-sensitive rats with salt induced renal injury (Example 6); format: in vivo; conditions: Dahl/ss rats on 4% NaCl diet
Procedure: Animals: Male Dahl/Ss Rats
Solid dispersions of Compound I (Compound I:PVPK30=1:8 (w/w)): Solid dispersions of Compound I was formulated with suitable amount of sterile water for injection into suspensions having concentrations of 0.03, 0.10, 0.30 and 1.00 mg/mL, respectively. The suspensions were prepared immediately before use. […]
One week before the experiment, the blood pressures were measured twice in rats by the tail-cuff blood pressure measurement so that rats could accommodate to the blood pressure monitoring operation. Then, immediately before the test, the blood pressure was determined and used as the baseline value. […]
Blood pressure (systolic blood pressure, SBP) measurement: Blood pressure was measured for 6 weeks, once a week, and the blood pressure changes in these groups were analyzed.
Pathological examination for the kidney and heart: At the end of the study, rats were sacrificed painlessly, from which bilateral kidneys and the heart were collected for histopathological analysis. The kidneys were stained using Hematoxylin-Eosin (HE) to semi-quantitatively evaluate renal injuries. The thickness of the left ventricular wall was measured for each heart to analyze the heart injury. […]

[2] = Safety, tolerability and pharmacokinetics in patients having chronic kidney disease (Example 9); format: in vivo, human; conditions: human, plasma, oral, CKD patients
Description: (§1) The patients in this example were those having chronic kidney disease with symptoms of renal failure, proteinuria, acute kidney injury, glomerular nephritis, renal cyst, urinary frequency, renal calculus, obstructive uropathy, and etc. These patients also had other diseases or implications such as diabetes mellitus, hyperlipidemia, hypercholesterolemia, hypertension, peripheral vascular diseases, coronary artery disease, and etc.
(§2) These patients continued to take the medications that they had prior to the present clinical trial, the medications being, for example, angiotensin converting enzyme inhibitors, such as Lisinopril, Benazepril, Enalapril, and Enalapril Maleate; angiotensin II receptor blockers, such as Valsartan and Losartan; calcium channel blockers, such as Amlodipine, and Nifedipine; diuretics, such as Furosemide; beta-receptor blockers, such as Metoprolol succinate, Metoprolol tartrate, Carvedilol, and Atenolol; and antilipemic drugs, such as Simvastatin, Atorvastatin, Fenofibrate, Pravastatin, and Rosuvastatin.
(§3) In this example, the administration dose referred to the amount of Compound I, although the pharmaceutical composition was administered. Two groups of subjects were administered once a day for 56 consecutive days at the daily doses of 0.5 mg (1 capsule for each administration, 0.5 mg of Compound I per capsule) and 2.5 mg (1 capsule for each administration, 2.5 mg of Compound I per capsule), respectively, with 6 subjects for the 0.5 mg/day dose group and also 6 for the 2.5 mg/day dose group. The capsules used here were the capsules prepared in Example 2, i.e., the capsules of Capsule formulation 3 (the capsule with 0.5 mg of Compound I), and Capsule formulation 4 (the capsule containing 2.5 mg of Compound I).
(§4) Plasma samples were collected to measure plasma drug concentration, and the pharmacokinetic parameters were analyzed using the non-compartment model. Serum samples were collected to measure serum potassium levels.

[3] = system: patients having chronic kidney disease; assay: as above; format: in vivo, human; conditions: CKD patients; for UACR decreased: at the 8th week; for Predicated AUCtau: predicted from the 0.5 mg/day group
Description: as §1, §2, §3, §4

[4] = Water solubility and permeation of Compound I (statement); format: physicochemical

In the case of `N#Cc1ccc(N2N=C3c4ccc(C(=O)N5CCC(O)CC5)nc4CC[C@@H]3[C@@H]2C2CCCC2)cc1Cl` [Compound I, 2-chloro-4-[(3S,3aR)-3-cyclopentyl-7-(4-hydroxylpiperidine-1-carbonyl)-3,3a,4,5-tetrahydro-2H-pyrazolo[3,4-f]quinolin-2-yl]benzonitrile], the “AUC0-24 at which the drug takes effect (undulation point of SBP or UACR vs AUC0-24 curve)” value ([1]; 0.3-10 mg/kg/day intragastric twice a day, 42 days) is reported as 100 ng·h/mL, the “SBP and UACR change (observation)” value ([1]; beyond AUC of 100 h*ng/mL) is reported as “SBP and UACR were significantly decreased” and the AUC ([2]; 0.5 mg, mean AUC plus the standard deviation at 0.5 mg, read-out: upper limit of AUC that is safe) is reported as 885 ng·h/mL. For the same molecule, the AUC ([2]; 0.5 mg, mean AUC plus twice the standard deviation at 0.5 mg, read-out: upper limit of AUC that is safe) was 1120 ng·h/mL, the AUC ([2]; 0.5 mg/day, administered for one day at 0.5 mg/day, read-out: steady-state AUCtau) was at least 106 ng·h/mL and the AUC ([2]; 0.5 mg/day, multiple doses 0.5 mg/day, read-out: average steady-state AUCtau) was 652 ± 232 ng·h/mL. The AUC ([2]; 2.5 mg, mean AUC plus the standard deviation at 2.5 mg, read-out: upper limit of AUC that is safe) was 2890 ng·h/mL, the AUC ([2]; 2.5 mg, mean AUC plus twice the standard deviation at 2.5 mg, read-out: upper limit of AUC that is safe) was 3170 ng·h/mL and the AUC ([2]; 2.5 mg/day, multiple doses 2.5 mg/day, read-out: average safe steady-state AUCtau) was 2610 ± 280 ng·h/mL. The UACR decreased ([3]; 0.5 mg/day) was 58.9%, the UACR decreased ([3]; 2.5 mg/day) was 50.7% and the “UACR decreased compared to the baseline” value ([3]; administered for one day at 0.5 mg/day) was at least 30.5%. The “AUC individual variation: highest AUC vs lowest AUC subject” value ([3]; capsule, multiple doses 2.5 mg daily) was 2.27 times, the “AUC individual variation: highest AUC vs lowest AUC subject” value ([3]; capsules, multiple doses 0.5 mg daily) was 2.14 times and the “Predicated AUCtau” value ([3]; dose 0.1 mg) was 130.5 ng·h/mL. For the same molecule, the “Predicated AUCtau” value ([3]; dose 0.15 mg) was 195.8 ng·h/mL, the “Predicated AUCtau” value ([3]; dose 0.2 mg) was 261 ng·h/mL and the “Predicated AUCtau” value ([3]; dose 0.25 mg) was 326.3 ng·h/mL. For the same molecule, the “Predicated AUCtau” value ([3]; dose 0.3 mg) was 391.5 ng·h/mL, the “Predicated AUCtau” value ([3]; dose 1.0 mg) was 1305 ng·h/mL and the “Predicated AUCtau” value ([3]; dose 2.0 mg) was 2610 ng·h/mL. For the same molecule, the “Predicated AUCtau” value ([3]; dose 2.5 mg) was 3262.5 ng·h/mL, the “serum potassium level (observation)” value ([3]; multiple doses 0.5 mg/day) was “no elevated serum potassium level was observed” and the “blood pressures and UACR (observation)” value ([3]; multiple doses 0.5 mg/day or 2.5 mg/day) was “significantly decrease in blood pressures and urine albumin-to-creatinine ratio (UACR)”. For the same molecule, the “serum potassium level (observation)” value ([3]; multiple doses 2.5 mg/day) was “serum potassium levels were elevated; also recorded: mild increase of the serum potassium level was observed in one subject; also recorded: In one subject, the serum potassium level slightly increased”, the permeation rate [4] was “medium” and the solubility in water [4] was “insoluble in water”.

From patent publication US11806344B2, “Pharmaceutical composition comprising mineralocorticoid receptor antagonist and use thereof” (priority 2016, dated 2023)
